Reference: patent publication US8969395B2, “Triterpenoid derivatives useful as antiproliferative agents” (Universidade de Coimbra, priority 2009, dated 2015)

Experiments:
[1] = system: LNCaP (human prostate adenocarcinoma); experiment: Cytotoxic activity, LNCaP; format: cell-based; details: mean ±SD
Method: (§1) Compounds presented in Table 6 were also tested in the following cell lines: PC-3 (human prostate adenocarcinoma), LNCaP (human prostate adenocarcinoma), LAPC4 (human prostate adenocarcinoma) and HT-29 (human colon adenocarcinoma).

[2] = system: HepG2 (human hepatocellular carcinoma); experiment: Cytotoxic activity, MTT assay, HepG2; format: cell-based; details: mean ±SD
Method: (§2) The cytotoxic of compounds of formulas (I) and (II) 14-50 was assessed towards human cancer (HepG2, HeLa and Jurkat) cell lines (Table 3 below). Compounds presented on Table 4 were also tested against a non-tumoral liver cell line (Chang liver). The cell viability of HeLa, HepG2 and Chang liver cells was determined by the MTT assay. Briefly, exponentially growing cells were plated in 96-well plates at a density of 1×10^3, 8×10^3 and 5×10^3 cells/well respectively and incubated for 24 h before treatment. The grown medium was replaced with one contained the tested compounds dissolved in DMSO (final DMSO concentration <0.1%) at different concentrations, in triplicate wells, and cells were incubated for 72 h. After incubation with the compounds, the medium was removed and MTT solution (0.5 mg/ml, 100 μl) was added to each well and the plates were incubated again for 1 h. DMSO (100 μl) was then added to dissolve the formazan crystals and the plates were immediately read at 550 nm on an ELISA plate reader (Tecan Sunrise MR20-301, TECAN, Austria). For the Jurkat cells, the cell viability was determined by the XTT assay. Briefly, exponentially growing cells were plated in 96-well plates at a density of 5.5×10^3 cells/well, treated with different concentrations of compounds in triplicate and incubated for 72 h. After incubation with the compounds the XTT labeling mixture (100 μl) were added to each of the wells and after a 4 h incubation period the plates were read at 450 nm on an ELISA plate reader. […] Known for its cytotoxic activity, betulinic acid 2 was used as a positive control in this experimentation. […] All the IC50 results represent an average of a minimum of three experiments and were expressed as means±standard deviation (SD).

[3] = system: PC-3 (human prostate adenocarcinoma); experiment: Cytotoxic activity, PC-3; format: cell-based; details: mean ±SD
Method: as §1

[4] = system: LAPC4 (human prostate adenocarcinoma); experiment: Cytotoxic activity, LAPC4; format: cell-based; details: mean ±SD
Method: as §1

[5] = system: HeLa (human cervical adenocarcinoma); experiment: Cytotoxic activity, MTT assay, HeLa; format: cell-based; details: 72 h, mean ±SD
Method: The cytotoxic of compounds of formulas (I) and (II) 14-50 was assessed towards human cancer (HepG2, HeLa and Jurkat) cell lines (Table 3 below). Compounds presented on Table 4 were also tested against a non-tumoral liver cell line (Chang liver). The cell viability of HeLa, HepG2 and Chang liver cells was determined by the MTT assay. Briefly, exponentially growing cells were plated in 96-well plates at a density of 1×10^3, 8×10^3 and 5×10^3 cells/well respectively and incubated for 24 h before treatment. The grown medium was replaced with one contained the tested compounds dissolved in DMSO (final DMSO concentration <0.1%) at different concentrations, in triplicate wells, and cells were incubated for 72 h. After incubation with the compounds, the medium was removed and MTT solution (0.5 mg/ml, 100 μl) was added to each well and the plates were incubated again for 1 h. DMSO (100 μl) was then added to dissolve the formazan crystals and the plates were immediately read at 550 nm on an ELISA plate reader (Tecan Sunrise MR20-301, TECAN, Austria). For the Jurkat cells, the cell viability was determined by the XTT assay. Briefly, exponentially growing cells were plated in 96-well plates at a density of 5.5×10^3 cells/well, treated with different concentrations of compounds in triplicate and incubated for 72 h. After incubation with the compounds the XTT labeling mixture (100 μl) were added to each of the wells and after a 4 h incubation period the plates were read at 450 nm on an ELISA plate reader. […] Known for its cytotoxic activity, betulinic acid 2 was used as a positive control in this experimentation.

Jurkat (human leukemia) = experiment: Cytotoxic activity, XTT assay, Jurkat; format: cell-based; details: 72 h, mean ±SD
Method: as §2

[6] = system: HT-29 (human colon adenocarcinoma); experiment: Cytotoxic activity, HT-29; format: cell-based; details: mean ±SD
Method: as §1

[7] = system: Chang liver (human normal liver cells); experiment: Cytotoxic activity against non-tumoral cell line, MTT assay; format: cell-based; details: 72 h, mean ±SD
Method: as §2

HepG2 cells = experiment: Cell cycle analysis by flow cytometry (FACS, PI), HepG2; format: cell-based, human; details: HepG2, compound at its IC50, 72 h
Method: (§3) The effects on the cell cycle of some of these compounds were assessed through flow cytometry by using a fluorescence-activated cell sorter (FACS) (Table 5 below). For this assay 2.3×10^5 HepG2 cells/well, 2.9×10^4 HeLa cells/well, 1.6×10^5 Jurkat cells/well and 1.4×10^5 Chang liver cells/well were plated in 6 well plates with 2 ml of medium. The number of cells was determined by the relationship number of cells/area wells, considering the number of cells that were cultured in 96-well plates. […] Chang liver cells were incubated with compounds 20, […] at concentrations corresponding to the IC80 determined for HepG2 at 72 h. Following 72 h. of incubation, cells were harvested by mild trypsinization, collected by centrifugation and stained in ice-cold Tris-buffered saline (TBS), containing 1 mg/ml PI, 10 mg/ml RNAse free of DNAase and 0.1% Igepal CA-630 for 1 h at 4° C. FACS analysis was carried out at 488 nm in an Epics XL flow cytometer (Coulter Corporation, Hialeah, Fla.). Data from 8×10^3 cells were collected and analyzed using Multicycle program (Phoenix Flow Systems, San Diego, Calif.). All experiments were performed three times with three replicates per experiment. […] To explore the selectivity of the effect on tumor cells, we also tested compounds 20, 44 and 46 in a non-malignant cell line. Chang liver cells were treated with the compounds at the IC80 values determined for HepG2 after 72 h of incubation and no effect was observed, indicating a selective effect of these agents (Table 5 below).

HeLa cells = experiment: Cell cycle analysis by flow cytometry (FACS, PI), HeLa; format: cell-based, human; details: compound at its IC50, 72 h
Method: as §3

Jurkat cells = experiment: Cell cycle analysis by flow cytometry (FACS, PI), Jurkat; format: cell-based, human; details: compound at its IC50, 72 h
Method: as §3

| Compound | IC50 [1] | IC50 ([2]; 72 h) | IC50 [3] | IC50 [4] | IC50 [5] | IC50 (Jurkat (human leukemia)) | IC50 [6] | IC50 [7] | further results |
| --- | --- | --- | --- | --- | --- | --- | --- | --- | --- |
| C=C(C)[C@@H]1CC[C@]2(COC(=O)n3ccnc3)CC[C@]3(C)[C@H](CC[C@@H]4[C@@]5(C)CC[C@H](OC(=O)n6ccnc6)C(C)(C)[C@@H]5CC[C@]43C)[C@@H]12 [Compound 17, Lup-20(29)-en-3β,28-di-yl-(1H-imidazole-1-carboxylate)] | 14.4 ± 1.3 µM | > 30 µM | > 30 µM | 12.9 ± 1.1 µM | > 30 µM | > 30 µM |  |  |  |
| 3β-(1H-imidazole-2′-methyl-1-carbonyloxy)-lup-20(29)-en-28-oic acid [Compound 29] |  | 7.3 ± 1 µM |  |  | 7.5 ± 1.5 µM | 16.1 ± 3.3 µM | 5.7 ± 0.6 µM |  |  |
| C[C@@H](C=O)[C@@H]1CC[C@]2(COC(=O)n3ccnc3)CC[C@]3(C)[C@H](CC[C@@H]4[C@@]5(C)CC[C@H](OC(=O)n6ccnc6)C(C)(C)[C@@H]5CC[C@]43C)[C@@H]12 [Compound 43, (20R)-lupane-29-oxo-3β,28-di-yl-(1H-imidazole-1-carboxylate)] | 6.9 ± 0.3 µM | 26.1 ± 1.1 µM | 6.2 ± 0.7 µM | 7.9 ± 1.3 µM | 19.2 ± 1.5 µM | 20.2 ± 1.6 µM |  | 156 ± 12.5 µM |  |
| C=C(C)[C@@H]1CC[C@]2(C(=O)n3ccnc3C)CC[C@]3(C)[C@H](CC[C@@H]4[C@@]5(C)C=CC(=O)C(C)(C)[C@@H]5CC[C@]43C)[C@@H]12 [Compound 47, 28-(2′-methyl-1H-imidazol-1-yl)-lup-1,20(29)-dien-3,28-dione] |  | 12.7 ± 1.2 µM |  |  | 6.4 ± 0.8 µM | 9.4 ± 0.8 µM | 5.9 ± 0.3 µM |  |  |
| C=C(C)[C@@H]1CC[C@]2(COC(=O)n3ccnc3C)CC[C@]3(C)[C@H](CC[C@@H]4[C@@]5(C)CC[C@H](O)C(C)(C)[C@@H]5CC[C@]43C)[C@@H]12 [Compound 15, 3β-hydroxy-lup-20(29)-en-28-yl-2′-methyl-1H-imidazole-1-carboxylate] |  | 8.1 ± 0.4 µM |  |  | 11 ± 1.7 µM | 15.8 ± 2.4 µM | 16.2 ± 2.1 µM |  |  |
| C=C(C)[C@@H]1CC[C@]2(COC(=O)n3ccnc3)CC[C@]3(C)[C@H](CC[C@@H]4[C@@]5(C)CC[C@H](O)C(C)(C)[C@@H]5CC[C@]43C)[C@@H]12 [Compound 14, 3β-hydroxy-lup-20(29)-en-28-yl-1H-imidazole-1-carboxylate] | 13 ± 1.5 µM | 4.2 ± 0.3 µM | 21 ± 2 µM | 10.3 ± 1.6 µM | 7.6 ± 0.6 µM | 16.3 ± 1.2 µM |  | 79.7 ± 6.4 µM |  |
| C=C(C)[C@@H]1CC[C@]2(C(=O)O)CC[C@]3(C)[C@H](CC[C@@H]4[C@@]5(C)CC[C@H](O)C(C)(C)[C@@H]5CC[C@]43C)[C@@H]12 [Compound 2, Betulinic acid, reference compound] |  |  |  |  |  |  |  |  | IC50 ([2]; Homo sapiens, HepG2, 72 h): 36.4 ± 1.5 µM; Phase of cell cycle (% of cells) G0/G1 (HepG2 cells): 59.7 ± 2.0 % of cells; Phase of cell cycle (% of cells) G2/M (HepG2 cells): 14.3 ± 0.9 % of cells; Phase of cell cycle (% of cells) S (HepG2 cells): 25.9 ± 1.3 % of cells; IC50 ([7]; Homo sapiens, Chang liver): 92.3 ± 4.1 µM; IC50 ([5]; Homo sapiens, HeLa): 26 ± 2.1 µM; Phase of cell cycle (% of cells) G0/G1 (HeLa cells): 66.8 ± 1.2 % of cells; Phase of cell cycle (% of cells) G2/M (HeLa cells): 11.7 ± 1.1 % of cells; Phase of cell cycle (% of cells) S (HeLa cells): 21.4 ± 0.9 % of cells; IC50 (Jurkat (human leukemia); Homo sapiens, Jurkat): 26.9 ± 2.2 µM; Phase of cell cycle (% of cells) G0/G1 (Jurkat cells): 56.8 ± 5.0 % of cells; Phase of cell cycle (% of cells) G2/M (Jurkat cells): 24.1 ± 4.7 % of cells; Phase of cell cycle (% of cells) S (Jurkat cells): 18.9 ± 1.2 % of cells |
| C=C(C)[C@@H]1CC[C@]2(C(=O)n3ccnc3)CC[C@]3(C)[C@H](CC[C@@H]4[C@@]5(C)CC[C@H](OC(=O)n6ccnc6)C(C)(C)[C@@H]5CC[C@]43C)[C@@H]12 [Compound 30, 28-(1H-imidazole-1-yl)-28-oxo-lup-20(29)-en-3β-yl-1H-imidazole-1-carboxylate] | 1.9 ± 0.2 µM | 2.9 ± 0.4 µM | 1.1 ± 0.1 µM | 4.4 ± 0.2 µM | 8.2 ± 0.4 µM | 6 ± 1.2 µM |  | 150 ± 13.6 µM |  |
| C=C(C)[C@@H]1CC[C@]2(C(=O)n3ccnc3C)CC[C@]3(C)[C@H](CC[C@@H]4[C@@]5(C)CC[C@H](OC(=O)n6ccnc6C)C(C)(C)[C@@H]5CC[C@]43C)[C@@H]12 [Compound 31, 28-(2′-methyl-1H-imidazole-1-yl)-28-oxo-lup-20(29)-en-3β-yl-2′-methyl-1H-imidazole-1-carboxylate] |  | 11.6 ± 0.8 µM |  |  |  | 20.1 ± 3.2 µM | 7.8 ± 1.6 µM |  |  |
| C=C(COC)[C@@H]1CC[C@]2(COC(=O)n3ccnc3)CC[C@]3(C)[C@H](CC[C@@H]4[C@@]5(C)CC[C@H](OC(=O)n6ccnc6)C(C)(C)[C@@H]5CC[C@]43C)[C@@H]12 [Compound 38, 30-methoxylup-20(29)-en-3β,28-di-yl-(1H-imidazole-1-carboxylate)] | 8.1 ± 1 µM | 19.6 ± 1.6 µM | 2 ± 0.3 µM | 7.3 ± 1.1 µM | > 30 µM | 16.2 ± 1 µM |  | 170 ± 17.7 µM |  |
| C=C(COC)[C@@H]1CC[C@]2(COC(=O)n3ccnc3)CC[C@]3(C)[C@H](CC[C@@H]4[C@@]5(C)CC[C@H](O)C(C)(C)[C@@H]5CC[C@]43C)[C@@H]12 [Compound 35, 3β-hydroxy-30-methoxylup-20(29)-en-28-yl-1H-imidazole-1-carboxylate] | 7.7 ± 0.9 µM | 8.3 ± 0.4 µM | 11.4 ± 1.3 µM | 9.5 ± 0.7 µM | 9.8 ± 0.6 µM | 12.2 ± 1.3 µM |  | 96.4 ± 7.5 µM |  |
| C=C(C)[C@@H]1CC[C@]2(C(=O)O)CC[C@]3(C)[C@H](CC[C@@H]4[C@@]5(C)CC[C@H](OC(=O)n6ccnc6)C(C)(C)[C@@H]5CC[C@]43C)[C@@H]12 [Compound 28, 3β-(1H-imidazole-1-carbonyloxy)-lup-20(29)-en-28-oic acid] | 15.6 ± 0.8 µM | 6.2 ± 0.2 µM | 5.6 ± 0.4 µM | 11.8 ± 0.9 µM | 5.1 ± 0.3 µM | 5.2 ± 0.7 µM |  | 56.8 ± 2.2 µM |  |
| C[C@@H](C=O)[C@@H]1CC[C@]2(COC(=O)n3ccnc3)CC[C@]3(C)[C@H](CC[C@@H]4[C@@]5(C)CC[C@H](O)C(C)(C)[C@@H]5CC[C@]43C)[C@@H]12 [Compound 41, 3β-hydroxy-(20R)-lupan-29-oxo-28-yl-1H-imidazole-1-carboxylate] | 15.6 ± 2.4 µM | 11.5 ± 1.1 µM | 16.7 ± 2.4 µM | > 30 µM | 11.1 ± 1.4 µM | 13.7 ± 1.4 µM |  | 146 ± 4.5 µM |  |
